Data as given in US11980633B2, “Method for treating cancer using a combination of DNA-damaging agents and DNA-PK inhibitors” (Vertex Pharmaceuticals Incorporated, priority 2016, dated 2024).

Experiments:
Format in all cases: cell-based
[1] = tested on: primary human ovarian tumors (dissociated cells); assay: Tumor Chemosensitivity Assay (TCA): Compound B-2 with doxorubicin, primary ovarian tumors, viability after 6 days, Bliss; set-up: Average Bliss score: scale not given here
Description: Specifically, one study described the combination of Compound B-2 and doxorubicin hydrochloride. In this study, a panel of primary human ovarian and endometrial tumors was dissociated and treated with Compound B-2 to determine the effectiveness of this selective DNA-PK inhibitor to enhance the activity of doxorubicin.
(§1) In both studies, cell viability was assessed after 6 days in culture. Statistical analysis of the combination matrix was performed to assess whether synergy, additivity, or antagonism of the combination treatments were observed.
(§2) Materials: Primary patient samples (See Tables 16 and 17, below) were excised from mice when they reached 500 mg to 1000 mg in size and processed immediately, or after overnight shipment. Tumors were serially passaged by subcutaneous implantation of 50 mg to 150 mg fragments into the flanks of immunocompromised (nude) mice. Tumors were used within the first 5 or 7 passages.
(§3) Tumor Chemosensitivity Assay (TCA): Primary tumor samples were grown and serially passaged in immunocompromised mice. Tumors were mechanically dissociated into small fragments (1 mm to 2 mm) with scalpels in phosphate buffered saline (PBS or RPMI) and centrifuged at 200×g for 5 minutes at room temperature in 50 mL centrifuge tubes. Samples were resuspended in 10 mL of cell dissociation reagent and enzymatically digested with mechanical agitation for 1 to 3 hours at 37° C., 5% CO2 to a single cell suspension. Ten mL of complete RPMI-1640 media was added to the cell mixture and pipetted up and down 4 to 5 times. The mixture was then passed through a 70 μm or 100 μm mesh strainer to remove undigested tumor. The filtrate was then centrifuged 200×g for 5 minutes at room temperature and resuspended in 20 mL complete RPMI-1640. This cell suspension was slowly layered onto 20 mL of room temperature Histopaque and centrifuged at 400×g for 15 minutes at room temperature without a brake. The interface was transferred to a new 50 mL centrifuge tube and 15 mL of complete RPMI-1640 was added. This suspension was centrifuged at 200×g at room temperature, and the resulting pellet was resuspended in 10 mL of complete PC-1 media, except for pancreatic tumors in which case Pancreatic Medium was used. Cells were diluted in Trypan blue, and viable cells that excluded the dye were counted. Only the larger, tumor cells were included in the cell count. Cells were diluted in complete PC-1 or Pancreatic media, as appropriate for the cells, and were plated at 15,000 to 20,000 cells per well in 100-135 μL in ultra-low attachment U-bottom plates.
(§4) Compound Addition: For these studies, a 10 mM stock of the DNA-PK inhibitor (Compound B-1 or Compound B-2) was made in DMSO and used to add to cells from most tumors with HP D300 Digital Dispenser (Tecan US, Morrisville, NC, USA), or diluted into the appropriate media (PC-1 or pancreatic media) as a 5-10× stock and added to cells (OVX001 and ENX001, 005). PC-1, pancreatic media, and chemotherapeutics were also added so that final well volume was 150 μL. Doxorubicin was made as DMSO stock of 1 or 10 mM and added to cells for most tumors with HP D300 Digital Dispenser, or diluted into PC-1 as 5-10× stock and added to cells (OVX001 and ENX001, 005). Cisplatin (cis-diammine platinum(II), dichloride) was prepared fresh to 10 mM in warm (60° C.) distilled water and diluted in PC-1 as a 5-10× stock. […] Different starting concentrations, dose ranges, and number of doses were used for each experiment based on the response data available at the time.
For doxorubicin hydrochloride experiments, combinations with Compound B-2 at all concentrations were run in triplicate. A 6×3 matrix was designed on each plate: 0.73 μM and 2.2 μM Compound B-2, or 0.37 μM and 4.4 μM Compound B-2 on some tumors where additional cells were available, plus no treatment control, in 3 columns each of 6 wells. Doxorubicin hydrochloride (plus ‘no treatment’ control) was added to 9 wells in rows of this plate. […]

[2] = tested on: primary human hepatocellular carcinoma (HCC) tumor; assay: TCA: Compound B-1 with doxorubicin hydrochloride, primary HCC tumor; settings: tumor L090923, Liver
Description: as §1, §2
Tumor Chemosensitivity Assay (TCA): Primary tumor samples were grown and serially passaged in immunocompromised mice. Tumors were mechanically dissociated into small fragments (1 mm to 2 mm) with scalpels in phosphate buffered saline (PBS or RPMI) and centrifuged at 200×g for 5 minutes at room temperature in 50 mL centrifuge tubes. Samples were resuspended in 10 mL of cell dissociation reagent and enzymatically digested with mechanical agitation for 1 to 3 hours at 37° C., 5% CO2 to a single cell suspension. Ten mL of complete RPMI-1640 media was added to the cell mixture and pipetted up and down 4 to 5 times. The mixture was then passed through a 70 μm or 100 μm mesh strainer to remove undigested tumor. […] Cells were diluted in Trypan blue, and viable cells that excluded the dye were counted. […]

[3] = tested on: primary human tumors (NSCLC, SCLC); assay: TCA: Compound B-1 with etoposide, primary lung tumors
Description: as §1, §2, §3, §4
For bleomycin experiments, combinations with Compound B-1 at all concentrations were run in triplicate. A 6×3 matrix was designed on one plate, consisting of a 2-point concentration range of 0.73 μM and 2.2 μM Compound B-1 plus no treatment control, in 3 columns each of 6 wells. Bleomycin (plus ‘no treatment’ control) was added to 9 wells in rows of this plate. Similar 6×3 matrices were set up for additional agents with different starting concentrations for compound dilutions. For cisplatin experiments the starting concentration was 30 μM which was diluted 1:3. […] For doxorubicin hydrochloride experiments the starting concentration was 5 μM doxorubicin which was diluted 1:3. For gemcitabine experiments the starting concentration was 5 μM gemcitabine which was diluted 1:3. […]

Question: How did the “tumors that showed synergy or additivity” value ([1]; 11 ovarian tumors) turn out when `[2H]c1nc(C)nc([2H])c1-c1cc(NC[C@@H](C)c2cccc3c(C(=O)NC)ccnc23)ncn1` [Compound B-2] was run?
Answer: 100%

Question: And the “tumors that showed strong synergy” value ([1]; four of 11 ovarian tumors)?
Answer: 36%

Question: What about the “Average Bliss score” value ([1]; tumor CTG-0252 (Ovarian)) of the same compound?
Answer: 14

Question: And the Synergy/Additivity/Antagonism ([1]; tumor CTG-0252 (Ovarian))?
Answer: Strongly Synergistic (greater than 10 are considered strongly synergistic)

Question: And the “Average Bliss score” value ([1]; tumor CTG-0253 (Ovarian))?
Answer: 6

Question: What about the Synergy/Additivity/Antagonism ([1]; tumor CTG-0253 (Ovarian)) of the same compound?
Answer: Synergistic (greater than 5 are considered synergistic)

Question: And the “Average Bliss score” value ([1]; tumor CTG-0258 (Ovarian))?
Answer: 9

Question: What about the Synergy/Additivity/Antagonism ([1]; tumor CTG-0258 (Ovarian)) of the same compound?
Answer: Synergistic (greater than 5 are considered synergistic)

Question: And the “Average Bliss score” value ([1]; tumor CTG-0486 (Ovarian))?
Answer: 5

Question: And the Synergy/Additivity/Antagonism ([1]; tumor CTG-0486 (Ovarian))?
Answer: Additive (Values between 5 and −5 are considered additive)

Question: And the “Average Bliss score” value ([1]; tumor CTG-0791 (Ovarian))?
Answer: 14

Question: And the Synergy/Additivity/Antagonism ([1]; tumor CTG-0791 (Ovarian))?
Answer: Strongly Synergistic (greater than 10 are considered strongly synergistic)

Question: What about the “Average Bliss score” value ([1]; tumor CTG-0947 (Ovarian)) of the same compound?
Answer: 10

Question: What about the Synergy/Additivity/Antagonism ([1]; tumor CTG-0947 (Ovarian)) of the same compound?
Answer: Synergistic (greater than 5 are considered synergistic)

Question: What about the “Average Bliss score” value ([1]; tumor CTG-0992 (Ovarian)) of the same compound?
Answer: 8

Question: What about the Synergy/Additivity/Antagonism ([1]; tumor CTG-0992 (Ovarian)) of the same compound?
Answer: Synergistic (greater than 5 are considered synergistic)

Question: And the “Average Bliss score” value ([1]; tumor CTG-1166 (Ovarian))?
Answer: 8

Question: And the Synergy/Additivity/Antagonism ([1]; tumor CTG-1166 (Ovarian))?
Answer: Synergistic (greater than 5 are considered synergistic)

Question: And the “Average Bliss score” value ([1]; tumor CTG-1301 (Ovarian))?
Answer: 8

Question: And the Synergy/Additivity/Antagonism ([1]; tumor CTG-1301 (Ovarian))?
Answer: Synergistic (greater than 5 are considered synergistic)

Question: What about the “Average Bliss score” value ([1]; tumor CTG-1423 (Ovarian)) of the same compound?
Answer: 12

Question: And the Synergy/Additivity/Antagonism ([1]; tumor CTG-1423 (Ovarian))?
Answer: Strongly Synergistic (greater than 10 are considered strongly synergistic)

Question: And the “Average Bliss score” value ([1]; tumor OVX001 (Ovarian))?
Answer: 11

Question: And the Synergy/Additivity/Antagonism ([1]; tumor OVX001 (Ovarian))?
Answer: Strongly Synergistic (greater than 10 are considered strongly synergistic)

Question: What does the source list for `CNC(=O)c1ccnc2c([C@H](C)CNc3cc(-c4cnc(C)nc4)ncn3)cccc12` [Compound B-1]?
Answer: Average Bliss score [2]: 4; tumors that showed strong synergy [3]: 100%; Average Bliss score ([3]; tumor LUX013, Lung (SCLC)): 15; Synergy/Additivity/Antagonism ([3]; tumor LUX013, Lung (SCLC)): Strongly Synergistic (greater than 10 are considered strongly synergistic); Average Bliss score ([3]; tumor LUX031, Lung (SCLC)): 16; Synergy/Additivity/Antagonism ([3]; tumor LUX031, Lung (SCLC)): Strongly Synergistic (greater than 10 are considered strongly synergistic); Average Bliss score ([3]; tumor OD26749, Lung (NSCLC)): 19; Synergy/Additivity/Antagonism ([3]; tumor OD26749, Lung (NSCLC)): Strongly Synergistic (greater than 10 are considered strongly synergistic); Average Bliss score ([3]; tumor OD29498, Lung (NSCLC)): 13; Synergy/Additivity/Antagonism ([3]; tumor OD29498, Lung (NSCLC)): Strongly Synergistic (greater than 10 are considered strongly synergistic)
